# From the supplement of paper PMC12463676, “Small-molecule dissolution of stress granules by redox modulation benefits ALS models” (Nature Chemical Biology, 2025)
# Experiments:
# lipoamide = compound: NC(=O)CCCCC1CCSS1 [lipoamide]; assay: thermal stability z-score vs DMSO; higher = more thermally stabilized by treatment; conditions: HeLa, lipoamide concentration 100 µM
# Procedure: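 Cellular thermal proteome profiling in HeLa cells. Cells were treated with 100 µM lipoamide for 1 h, with or without 1 mM arsenate for a further 1 h, then heated to ten temperatures (37-66.3 °C), and soluble protein was quantified by TMT mass spectrometry relative to 0.1% DMSO controls. The thermal stability score (sum of log2 fold changes minus the abundance score) was transformed to a z-score; mean of n = 3 experiments.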
# potassium arsenate = compound: O=[As]([O-])(O)O.[K+] [potassium arsenate]; assay: as above; conditions: HeLa; arsenate concentration 1 mM
# Procedure: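 Cellular thermal proteome profiling in HeLa cells treated with 1 mM arsenate for 1 h (DMSO pretreatment), heated to ten temperatures (37-66.3 °C). Soluble protein was quantified by TMT mass spectrometry relative to DMSO controls; the thermal stability score was transformed to a z-score; mean of n = 3 experiments.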
# [1] = arsenate co-treatment: 1 mM arsenate 1 h
# 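Further: each temperature applied for 3 min, abundance score taken as mean log2 fold change at the two lowest temperatures, z-score obtained by mean subtraction and division by SD.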
# Sequence of UniProt Q96H20 (Q96H20 whole entry): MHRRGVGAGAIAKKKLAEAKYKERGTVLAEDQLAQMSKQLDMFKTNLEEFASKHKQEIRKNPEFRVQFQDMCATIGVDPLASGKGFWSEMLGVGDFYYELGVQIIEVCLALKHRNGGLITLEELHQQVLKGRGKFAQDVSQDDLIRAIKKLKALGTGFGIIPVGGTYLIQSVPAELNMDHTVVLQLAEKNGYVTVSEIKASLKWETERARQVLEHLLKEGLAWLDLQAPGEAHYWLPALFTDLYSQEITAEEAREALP
# Sequence of UniProt Q9Y3I1 (Q9Y3I1 whole entry): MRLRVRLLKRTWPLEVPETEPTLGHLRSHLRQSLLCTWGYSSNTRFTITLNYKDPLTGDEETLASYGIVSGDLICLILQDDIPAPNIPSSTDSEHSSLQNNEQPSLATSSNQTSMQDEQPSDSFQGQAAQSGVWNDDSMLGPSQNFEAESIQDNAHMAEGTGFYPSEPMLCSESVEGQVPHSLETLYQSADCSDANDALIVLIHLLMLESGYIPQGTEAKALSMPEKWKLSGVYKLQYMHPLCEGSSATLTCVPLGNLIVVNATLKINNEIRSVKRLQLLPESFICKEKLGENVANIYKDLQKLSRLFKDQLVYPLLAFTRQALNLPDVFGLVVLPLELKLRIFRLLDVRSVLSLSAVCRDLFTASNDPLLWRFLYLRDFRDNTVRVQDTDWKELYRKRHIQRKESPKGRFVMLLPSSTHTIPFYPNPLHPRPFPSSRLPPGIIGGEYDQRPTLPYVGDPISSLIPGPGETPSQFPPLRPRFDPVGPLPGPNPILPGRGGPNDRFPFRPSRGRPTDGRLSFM
# Sequence of UniProt P49756 (P49756 whole entry): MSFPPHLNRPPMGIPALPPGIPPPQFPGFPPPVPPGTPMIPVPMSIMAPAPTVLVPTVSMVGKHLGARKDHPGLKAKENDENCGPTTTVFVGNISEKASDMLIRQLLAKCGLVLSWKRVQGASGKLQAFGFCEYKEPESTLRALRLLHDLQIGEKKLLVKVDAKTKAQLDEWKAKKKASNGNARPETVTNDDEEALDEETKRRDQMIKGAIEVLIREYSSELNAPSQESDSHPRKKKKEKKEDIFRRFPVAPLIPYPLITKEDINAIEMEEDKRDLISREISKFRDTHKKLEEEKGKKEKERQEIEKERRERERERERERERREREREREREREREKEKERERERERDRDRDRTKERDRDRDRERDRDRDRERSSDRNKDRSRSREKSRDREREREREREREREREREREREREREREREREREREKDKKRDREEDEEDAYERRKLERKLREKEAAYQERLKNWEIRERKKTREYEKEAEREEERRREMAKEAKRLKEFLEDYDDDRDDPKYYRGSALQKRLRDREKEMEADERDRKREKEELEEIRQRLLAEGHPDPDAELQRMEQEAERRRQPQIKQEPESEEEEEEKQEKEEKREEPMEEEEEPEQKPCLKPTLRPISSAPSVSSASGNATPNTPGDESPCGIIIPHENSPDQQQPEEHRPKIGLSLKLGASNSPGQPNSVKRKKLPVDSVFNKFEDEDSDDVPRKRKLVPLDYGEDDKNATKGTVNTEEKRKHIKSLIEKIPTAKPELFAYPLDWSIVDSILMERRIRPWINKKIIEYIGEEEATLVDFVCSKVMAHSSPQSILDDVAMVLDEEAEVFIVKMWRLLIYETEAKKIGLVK
# Sequence of UniProt Q70Z53 (Q70Z53 whole entry): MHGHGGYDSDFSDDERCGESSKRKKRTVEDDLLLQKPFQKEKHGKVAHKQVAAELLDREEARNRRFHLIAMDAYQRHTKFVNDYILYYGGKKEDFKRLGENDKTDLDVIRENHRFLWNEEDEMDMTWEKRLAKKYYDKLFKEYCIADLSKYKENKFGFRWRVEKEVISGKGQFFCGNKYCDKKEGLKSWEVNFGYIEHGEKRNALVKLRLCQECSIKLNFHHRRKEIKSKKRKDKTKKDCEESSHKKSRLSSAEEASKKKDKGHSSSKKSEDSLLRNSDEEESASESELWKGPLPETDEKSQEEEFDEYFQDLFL
# Sequence of UniProt Q8IWZ3 (Q8IWZ3 whole entry): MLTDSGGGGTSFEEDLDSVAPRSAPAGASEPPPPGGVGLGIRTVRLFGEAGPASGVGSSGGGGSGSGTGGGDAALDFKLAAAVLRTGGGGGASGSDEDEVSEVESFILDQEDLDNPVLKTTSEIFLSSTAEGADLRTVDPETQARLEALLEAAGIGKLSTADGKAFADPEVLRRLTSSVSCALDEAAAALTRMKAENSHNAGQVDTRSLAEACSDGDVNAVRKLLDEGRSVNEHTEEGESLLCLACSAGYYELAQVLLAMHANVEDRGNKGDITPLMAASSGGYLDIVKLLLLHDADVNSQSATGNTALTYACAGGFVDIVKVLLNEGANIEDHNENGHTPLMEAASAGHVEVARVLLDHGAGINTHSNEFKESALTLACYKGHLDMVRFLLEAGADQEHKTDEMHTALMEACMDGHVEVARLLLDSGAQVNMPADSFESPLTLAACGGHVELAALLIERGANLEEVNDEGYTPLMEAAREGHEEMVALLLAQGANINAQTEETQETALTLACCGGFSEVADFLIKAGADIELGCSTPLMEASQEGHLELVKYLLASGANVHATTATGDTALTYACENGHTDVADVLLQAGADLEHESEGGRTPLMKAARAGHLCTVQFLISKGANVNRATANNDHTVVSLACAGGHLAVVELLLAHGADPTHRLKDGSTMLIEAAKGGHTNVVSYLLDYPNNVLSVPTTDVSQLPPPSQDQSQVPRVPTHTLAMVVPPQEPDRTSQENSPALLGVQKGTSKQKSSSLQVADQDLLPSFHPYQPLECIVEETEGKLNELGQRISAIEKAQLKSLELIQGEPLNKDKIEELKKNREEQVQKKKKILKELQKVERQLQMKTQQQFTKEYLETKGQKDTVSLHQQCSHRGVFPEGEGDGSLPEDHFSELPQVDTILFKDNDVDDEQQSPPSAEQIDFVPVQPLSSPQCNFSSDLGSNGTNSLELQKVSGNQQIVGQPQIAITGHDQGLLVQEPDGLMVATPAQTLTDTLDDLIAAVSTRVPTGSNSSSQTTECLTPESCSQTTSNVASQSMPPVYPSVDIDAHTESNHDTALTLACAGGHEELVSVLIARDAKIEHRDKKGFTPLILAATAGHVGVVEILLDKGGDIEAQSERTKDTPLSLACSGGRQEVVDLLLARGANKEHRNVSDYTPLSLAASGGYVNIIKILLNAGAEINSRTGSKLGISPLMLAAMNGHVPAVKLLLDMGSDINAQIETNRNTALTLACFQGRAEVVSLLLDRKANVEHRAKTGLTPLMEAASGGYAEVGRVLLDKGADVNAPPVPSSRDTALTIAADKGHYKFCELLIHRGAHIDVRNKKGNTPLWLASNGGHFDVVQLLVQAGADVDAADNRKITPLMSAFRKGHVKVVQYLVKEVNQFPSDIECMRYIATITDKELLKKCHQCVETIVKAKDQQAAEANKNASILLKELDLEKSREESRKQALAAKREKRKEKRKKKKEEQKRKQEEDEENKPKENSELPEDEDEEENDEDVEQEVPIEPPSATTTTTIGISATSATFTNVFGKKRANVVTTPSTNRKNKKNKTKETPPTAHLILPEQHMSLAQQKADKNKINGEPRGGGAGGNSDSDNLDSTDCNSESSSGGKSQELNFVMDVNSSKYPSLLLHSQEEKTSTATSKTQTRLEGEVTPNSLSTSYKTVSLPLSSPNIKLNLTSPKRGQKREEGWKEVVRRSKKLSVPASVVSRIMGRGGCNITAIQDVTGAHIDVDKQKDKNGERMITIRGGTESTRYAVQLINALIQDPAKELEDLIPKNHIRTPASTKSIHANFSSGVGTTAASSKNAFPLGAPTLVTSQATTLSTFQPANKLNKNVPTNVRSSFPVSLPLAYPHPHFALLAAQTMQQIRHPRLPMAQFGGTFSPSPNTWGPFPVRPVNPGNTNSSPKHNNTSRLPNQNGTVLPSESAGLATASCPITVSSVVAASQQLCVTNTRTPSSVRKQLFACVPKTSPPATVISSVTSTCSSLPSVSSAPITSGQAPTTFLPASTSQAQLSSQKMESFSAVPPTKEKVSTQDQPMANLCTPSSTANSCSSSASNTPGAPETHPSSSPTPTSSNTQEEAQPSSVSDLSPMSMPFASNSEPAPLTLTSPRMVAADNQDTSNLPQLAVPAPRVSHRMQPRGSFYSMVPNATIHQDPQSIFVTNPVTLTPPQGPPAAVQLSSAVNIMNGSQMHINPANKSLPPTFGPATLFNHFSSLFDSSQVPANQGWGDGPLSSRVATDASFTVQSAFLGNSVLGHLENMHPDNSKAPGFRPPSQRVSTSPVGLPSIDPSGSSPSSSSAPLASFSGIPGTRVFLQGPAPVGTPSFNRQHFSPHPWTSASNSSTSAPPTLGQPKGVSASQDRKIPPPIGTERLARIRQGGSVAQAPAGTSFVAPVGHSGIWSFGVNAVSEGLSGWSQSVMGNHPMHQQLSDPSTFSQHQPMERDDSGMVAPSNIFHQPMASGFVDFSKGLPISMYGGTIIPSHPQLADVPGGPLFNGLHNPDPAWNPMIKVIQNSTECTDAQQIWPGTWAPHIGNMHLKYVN
# Sequence of UniProt Q8WU79 (Q8WU79 whole entry): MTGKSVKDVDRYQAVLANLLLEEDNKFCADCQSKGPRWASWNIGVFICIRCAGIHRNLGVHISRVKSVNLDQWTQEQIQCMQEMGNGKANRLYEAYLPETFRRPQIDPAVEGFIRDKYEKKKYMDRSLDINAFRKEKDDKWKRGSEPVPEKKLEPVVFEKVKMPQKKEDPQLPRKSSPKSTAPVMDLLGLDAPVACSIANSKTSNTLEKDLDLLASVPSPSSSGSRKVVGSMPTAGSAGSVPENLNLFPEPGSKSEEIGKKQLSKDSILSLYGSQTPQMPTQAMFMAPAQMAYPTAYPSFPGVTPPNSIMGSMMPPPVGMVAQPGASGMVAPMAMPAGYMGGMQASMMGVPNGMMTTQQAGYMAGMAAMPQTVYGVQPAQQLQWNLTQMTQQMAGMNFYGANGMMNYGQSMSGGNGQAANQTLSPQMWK
# Sequence of UniProt Q7Z422 (Q7Z422 whole entry): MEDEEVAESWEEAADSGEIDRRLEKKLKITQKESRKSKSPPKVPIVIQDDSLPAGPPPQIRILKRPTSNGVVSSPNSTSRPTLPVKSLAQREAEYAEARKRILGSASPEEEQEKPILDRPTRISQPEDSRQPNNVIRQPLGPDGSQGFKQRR
Target,thermal stability z-score (lipoamide; [1]),thermal stability z-score (lipoamide; arsenate co-treatment: none),thermal stability z-score (potassium arsenate)
ACADVL (UniProt P49748),-0.94,-1.06,-0.558
GLTP (UniProt Q9NZD2),0.912,0.581,0.72
EML3 (UniProt Q32P44),0.0786,-0.13,-0.524
DSC2 (UniProt Q02487),2.38,5.06,1.77
POLR3D (UniProt P05423),0.483,-0.501,-1.56
YWHAZ (UniProt P63104),0.146,-0.0541,-0.195
DROSHA (UniProt Q9NRR4),-0.124,-0.127,0.141
RBM25 (UniProt P49756),-0.0516,0.34,-0.454
FBXO4 (UniProt Q9UKT5),-0.0696,0.534,-0.473
GLS (UniProt O94925),-0.371,-0.00934,0.351
SMAP2 (UniProt Q8WU79),-1.95,-0.774,-1.45
AES (UniProt Q08117),0.656,0.111,0.378
UGT8 (UniProt Q16880),0.0311,-0.0518,0.235
FRA10AC1 (UniProt Q70Z53),0.081,0.0654,0.108
DDX55 (UniProt Q8NHQ9),0.693,0.58,0.0246
CAMKMT (UniProt Q7Z624),0.0977,-0.0333,-0.235
PEBP1 (UniProt P30086),0.203,0.0137,-0.433
SLC25A15 (UniProt Q9Y619),0.309,0.0332,0.22
NUP155 (UniProt O75694),-0.814,-0.769,0.275
IL27RA (UniProt Q6UWB1),-0.395,0.44,1.33
IDE (UniProt P14735),0.708,0.717,1.24
ANKHD1 (UniProt Q8IWZ3),-0.133,-0.523,0.37
POLR1E (UniProt Q9GZS1),0.144,0.0221,-0.0491
IRF2BPL (UniProt Q9H1B7),0.0789,0.157,-0.124

Target,thermal stability z-score (lipoamide; [1]),thermal stability z-score (lipoamide; arsenate co-treatment: none),thermal stability z-score (potassium arsenate)
ING1 (UniProt Q9UK53),1.11,0.466,-1.34
P3H1 (UniProt Q32P28),-4.35,-3.23,1.2
HNRNPA3 (UniProt P51991),0.238,0.437,-0.49
NDUFS6 (UniProt O75380),-0.253,0.123,-0.244
DNAJC6 (UniProt O75061),0.617,0.625,0.413
LIG4 (UniProt P49917),-0.146,0.0757,-0.107
TECR (UniProt Q9NZ01),-1.46,-0.891,-0.077
GTSE1 (UniProt Q9NYZ3),-0.0607,0.0853,-0.213
COPG1 (UniProt Q9Y678),0.243,-0.177,-0.32
MUL1 (UniProt Q969V5),-0.0704,-0.261,-2.82
CLP1 (UniProt Q92989),-0.189,-0.158,-0.0689
MCCC2 (UniProt Q9HCC0),0.322,0.156,-0.197
TOE1 (UniProt Q96GM8),0.165,0.146,-2.54
SLC39A10 (UniProt Q9ULF5),0.0305,-0.329,0.177
SZRD1 (UniProt Q7Z422),0.289,0.399,-0.0744
ZCCHC6 (UniProt Q5VYS8),-0.043,-0.0119,-0.0705
SMC3 (UniProt Q9UQE7),0.0797,0.288,-0.181
RHOF (UniProt Q9HBH0),0.288,0.301,0.478
SUPT4H1 (UniProt P63272),-0.0276,-0.173,-0.164
TSEN34 (UniProt Q9BSV6),-1.1,0.117,-0.292
OTUB1 (UniProt Q96FW1),0.513,0.823,-0.468
POLD2 (UniProt P49005),0.196,0.117,-0.0023
THBS1 (UniProt P07996),-0.588,-0.841,-0.825
THUMPD3 (UniProt Q9BV44),0.0954,-0.489,0.37

Target,thermal stability z-score (lipoamide; [1]),thermal stability z-score (lipoamide; arsenate co-treatment: none),thermal stability z-score (potassium arsenate)
SNF8 (UniProt Q96H20),-0.129,-0.418,-0.156
SKIV2L2 (UniProt P42285),0.46,0.334,0.0276
PMM1 (UniProt Q92871),-0.14,0.072,0.274
KCTD3 (UniProt Q9Y597),0.366,0.263,-0.15
HAUS6 (UniProt Q7Z4H7),0.0315,0.263,0.528
STK24 (UniProt Q9Y6E0),0.0491,-0.118,0.0137
AKAP13 (UniProt Q12802),-0.125,-0.1,0.667
FBXO7 (UniProt Q9Y3I1),-0.692,-0.573,-0.35
COL4A3BP (UniProt Q9Y5P4),-0.466,0.862,0.568
TRAF3IP2 (UniProt O43734),-0.106,-0.159,-0.155
PRPSAP2 (UniProt O60256),-0.04,-0.392,-0.637
CASC5 (UniProt Q8NG31),-0.0952,-0.0158,0.219
EEF1E1 (UniProt O43324),0.552,0.194,0.997
MRPL23 (UniProt Q16540),0.205,0.755,0.525
PAK1IP1 (UniProt Q9NWT1),0.104,-0.651,-1.53
LRRC42 (UniProt Q9Y546),-0.294,-0.0469,-0.0558
ATP2B2 (UniProt Q01814),-0.146,-0.424,0.106
YES1 (UniProt P07947),-0.641,-0.393,-2.98
PSMG2 (UniProt Q969U7),0.926,0.248,2.01
ALDOC (UniProt P09972),-0.284,-0.526,-0.67
PCCB (UniProt P05166),0.673,-0.198,-0.873
USP5 (UniProt P45974),0.0243,0.351,0.0981
DNAJB11 (UniProt Q9UBS4),-2.65,-2.51,0.319
